Data on 12 molecules can be found in the C3SDB collision cross section collection.

For data set [1] the following is noted: instrument: TW, calibrated with phosphatidylcholines (ESI+) and phosphatidylethanolamines (ESI-).
For data set [2] the following is noted: instrument: DT, single field, calibrated with Agilent tune mix (Agilent).
For data set [3] the following is noted: instrument: DT, stepped-field.

For `CCCCC/C=C\C/C=C\C/C=C\C/C=C\CCCCCC(=O)O[C@H](COC(=O)CCCC/C=C\C/C=C\C/C=C\CCCCC)COP(=O)([O-])OCC[N+](C)(C)C` [PC(40:7)], the “collision cross section (N2)” value turned out to be 293.2 Å² in data set [1] ([M+H]+) and 293.6 Å² in data set [2] ([M+H]+).
For `CCCCCCCCCC/C=C\CCCCCCCCCC(=O)O[C@H](COC(=O)CCCCCCCCCCCCC)COP(=O)(O)OCCN` [PE(36:1)], the “collision cross section (N2)” value in data set [1] ([M+H]+) came to 278.7 Å²; in data set [1] ([M-H]-) it was 268.8 Å²; in data set [2] ([M+H]+), 281.3 Å²; in data set [2] ([M+Na]+), 287.5 Å²; in data set [2] ([M-H]-), 269.9 Å²; in data set [3] ([M+Na]+), 288.5 Å².
For `CCCCC/C=C\C/C=C\C/C=C\CCCCCCC(=O)O[C@H](COC(=O)CCCCCCC/C=C\CCCCCC)COP(=O)(O)OCCN` [PE(36:4)], the “collision cross section (N2)” value in data set [1] ([M-H]-) was determined as 265.7 Å²; in data set [2] ([M+Na]+), 281.2 Å²; in data set [2] ([M-H]-), 265.2 Å²; in data set [3] ([M+Na]+), 280.6 Å².
Take `CC/C=C\C/C=C\C/C=C\C/C=C\CCCCC(=O)OC[C@H](COP(=O)(O)OCCN)OC(=O)CCCCCCCCC/C=C\C/C=C\CCCCC` [PE(38:6)]: the “collision cross section (N2)” value in data set [1] ([M+H]+) was determined as 275.7 Å²; in data set [1] ([M-H]-) it was 269.2 Å²; in data set [2] ([M+Na]+), 283.6 Å²; in data set [2] ([M-H]-), 269.8 Å²; in data set [3] ([M+K]+), 288.7 Å²; in data set [3] ([M+Na]+) it was 285 Å².
Regarding `CC/C=C\C/C=C\C/C=C\C/C=C\CCCCC(=O)OC[C@H](COP(=O)(O)OCCN)OC(=O)CCCCC/C=C\C/C=C\C/C=C\C/C=C\CCCCC` [PE(40:8)], the results for the “collision cross section (N2)” value in data set [1] ([M+H]+), in data set [2] ([M+Na]+) and in data set [3] ([M+Na]+) were 280.7 Å², 287.3 Å² and 289.2 Å², respectively.
Take `CC/C=C\C/C=C\C/C=C\CCCCCCCC(=O)O[C@H](CO/C=C\CCCCCCCCCCCCCCCC)COP(=O)(O)OCCN` [PE(p36:3)]: the “collision cross section (N2)” value in data set [1] ([M-H]-) worked out at 265.2 Å²; in data set [2] ([M-H]-) it was 265.6 Å².
As to `CC/C=C\C/C=C\C/C=C\C/C=C\C/C=C\C/C=C\CCC(=O)O[C@H](CO/C=C\CCCCCCCCCCCCCC)COP(=O)(O)OCCN` [PE(p38:6)], the “collision cross section (N2)” value was 276.9 Å² in data set [1] ([M+H]+), 268.1 Å² in data set [1] ([M-H]-) and 278 Å² in data set [2] ([M+H]+).
As for `CC/C=C\C/C=C\C/C=C\C/C=C\C/C=C\CCCC(=O)O[C@H](CO/C=C\CCCCCCCCCCCCCCCCCC)COP(=O)(O)OCCN` [PE(p40:5)], the figures for the “collision cross section (N2)” value in data set [1] ([M+H]+), in data set [1] ([M-H]-) and in data set [2] ([M-H]-) were 284.7 Å², 274.8 Å² and 276.1 Å², respectively.
In the case of `CCCC/C=C\CCCCCCCC(=O)OC[C@H](COP(=O)(O)O[C@H]1C(O)C(O)C(O)[C@@H](O)C1O)OC(=O)CCCCCCCCC/C=C\CCCCCCCCCC` (some centres undefined) [PI(36:2)], the “collision cross section (N2)” value in data set [1] ([M+Na]+) is 293.3 Å²; in data set [1] ([M-H]-), 288.7 Å²; in data set [2] ([M+H]+), 299.3 Å²; in data set [2] ([M+Na]+), 297.6 Å²; in data set [2] ([M-H]-), 289.3 Å².
For the molecule `CC/C=C\C/C=C\C/C=C\C/C=C\CCCCC(=O)OC[C@H](COP(=O)(O)O[C@H]1C(O)C(O)C(O)[C@@H](O)C1O)OC(=O)CCCCCCCCC/C=C\CCCCCCCCCC` (some centres undefined) [PI(40:5)], the “collision cross section (N2)” value is reported as 301.1 Å² in data set [1] ([M+Na]+); 296.5 Å² in data set [1] ([M-H]-); 307.1 Å² in data set [2] ([M+H]+); 308.6 Å² in data set [2] ([M+NH4]+); 305.8 Å² in data set [2] ([M+Na]+); 297.7 Å² in data set [2] ([M-H]-).
As to `CC/C=C\C/C=C\C/C=C\C/C=C\C/C=C\C/C=C\CCC(=O)O[C@H](COC(=O)CCCCCCCCCCCCCCCCC)COP(=O)(O)O[C@H]1C(O)C(O)C(O)[C@@H](O)C1O` (some centres undefined) [PI(40:6)], the “collision cross section (N2)” value in data set [1] ([M+Na]+) was 299.8 Å²; in data set [2] ([M+NH4]+) it was 306.1 Å²; in data set [2] ([M-H]-), 296.4 Å².
With `CCCCCCCCCCCCC=CC[C@@H](O)[C@H](COP(=O)([O-])OCC[N+](C)(C)C)NC(=O)CC=CCCCCCCCCCCCCCCCCCCCC` [SM(d18:1/24:1)], the “collision cross section (N2)” value in data set [1] ([M+H]+) turned out to be 300.7 Å².
